Data: patent US6410533B1, “Antibacterial compounds” (Genzyme Corporation, priority 2000, dated 2002)
In brackets after ≈: the same amount, converted by molar mass.

Assays:
[1] = test system: Staphylococcus aureus bacteria (ATCC 9604 SV); assay: IC50 determination, growth inhibition by turbidity at 550 nm; type: cell-based; conditions: Staphylococcus aureus ATCC 9604 SV, turbidity at 550 nm after 3-5 h at 37° C.
Protocol: (§1) Minimal inhibitory concentrations (MICs) for Staphylococcus aureus bacteria (ATCC 9604 SV) were determined by broth microdilution methodology following National Committee for Clinical Laboratory Standards. In the MIC determinations, the compounds were incorporated into Mueller-Hinton broth (Becton Dickinson Microbiology systems, Cockeyville, Md.) at a series of concentrations. After the test organism was grown overnight in TB broth, the broths were adjusted to the turbidity equivalent to 0.05 McFarland standard. The suspensions were diluted twenty-fold into the broth containing the compounds. […] In the IC50 determination, the method was modified to allow the rapid growth of the organisms. The inoculum suspensions were adjusted to 0.1 McFarland standard and then diluted two-fold into the wells containing TB broth and the compounds. After three to five hours incubation at 37° C., the turbidity was measured at 550 nm and inhibitory activity was defined as the concentration of antimicrobial agent that inhibits 50% growth of the organism in the microdilution wells.

[2] = test system: methicillin-resistant Staphylococcus aureus (ATCC 33591); assay: In vivo mouse intraperitoneal infection, mortality and % survivors over 7 days; conditions: 1 and 5 h post inoculation, MRSA ATCC 33591 i.p., ICR mice
Protocol: Ten male ICR mice weighing 20 grams were inoculated intraperitoneally with an LD90-100 dose (2-3×10^7 CFU/mouse) of methicillin-resistant Staphylococcus aureus (ATCC 33591) in brain-heart infusion broth containing 5% mucin. Compounds were suspended in a vehicle containing 1% cremophore EL (Sigma) in normal saline and were administered subcutaneously in a volume of 0.4 ml per mouse either 1 hour following bacterial inoculation or 1 and 5 hours post inoculation. Animals receiving two doses of drug were injected subcutaneously in the hindquarter one hour post-innoculation and in the neck area, 5 hours post-innoculation. Deaths occurring during the subsequent 7 days are recorded. Mortality and % survivor endpoints are calculated.

[3] = test system: Staphylococcus aureus bacteria (ATCC 9604 SV); assay: Minimal inhibitory concentration (MIC), broth microdilution; type: cell-based; conditions: Staphylococcus aureus ATCC 9604 SV, 24 h at 37° C.
Protocol: as §1

| Compound | IC50 [1] | other results |
| --- | --- | --- |
| O=C(Nc1cc(C(F)(F)F)cc(C(F)(F)F)c1)Nc1nc(-c2ccccc2)cs1 [Compound 132] | 970 nM |  |
| COc1ccccc1-c1csc(NC(=O)Nc2cc(C(F)(F)F)cc(C(F)(F)F)c2)n1 [Compound 133] | 4630 nM |  |
| COc1cccc(-c2csc(NC(=O)Nc3cc(C(F)(F)F)cc(C(F)(F)F)c3)n2)c1 [Compound 134] | 4520 nM |  |
| O=C(Nc1cc(C(F)(F)F)cc(C(F)(F)F)c1)Nc1nc(-c2ccc(Br)cc2)cs1 [Compound 136] | 133 nM |  |
| Cc1sc(NC(=O)Nc2cc(C(F)(F)F)cc(C(F)(F)F)c2)nc1-c1ccc(Br)cc1 [Compound 137] | 838 nM |  |
| O=C(Nc1cc(C(F)(F)F)cc(C(F)(F)F)c1)Nc1nc(-c2ccc(Cl)cc2)cs1 [Compound 138, 1-(3,5-Bis-trifluoromethyl-phenyl)-3-[4-(4-chloro-phenyl)-thiazol-2-yl]-urea] |  | IC50 ([1]; ATCC9604): 100 nM |
| Cc1ccc(-c2csc(NC(=O)Nc3cc(C(F)(F)F)cc(C(F)(F)F)c3)n2)cc1 [Compound 140] | 653 nM |  |
| COc1ccc(-c2csc(NC(=O)Nc3cc(C(F)(F)F)cc(C(F)(F)F)c3)n2)cc1 [Compound 141] | 1360 nM |  |
| N#Cc1ccc(-c2csc(NC(=O)Nc3cc(C(F)(F)F)cc(C(F)(F)F)c3)n2)cc1 [Compound 144] | 337 nM |  |
| O=C(Nc1cc(C(F)(F)F)cc(C(F)(F)F)c1)Nc1nc(-c2ccc(-c3ccccc3)cc2)cs1 [Compound 147] | 799 nM |  |
| O=C(Nc1cc(C(F)(F)F)cc(C(F)(F)F)c1)Nc1nc(-c2ccc(Cl)cc2Cl)cs1 [Compound 148] | 400 nM |  |
| O=C(Nc1cc(C(F)(F)F)cc(C(F)(F)F)c1)Nc1nc(-c2ccc(F)cc2F)cs1 [Compound 149] | 879 nM |  |
| O=C(Nc1cc(C(F)(F)F)cc(C(F)(F)F)c1)Nc1nc(-c2ccc(Cl)c(Cl)c2)cs1 [Compound 150] | 410 nM |  |
| O=C(Nc1cc(C(F)(F)F)cc(C(F)(F)F)c1)Nc1nc(-c2ccc3ccccc3c2)cs1 [Compound 153] | 1450 nM |  |
| Cc1c(-c2csc(NC(=O)Nc3cc(C(F)(F)F)cc(C(F)(F)F)c3)n2)sc2ccc(Cl)cc12 [Compound 157] | 332 nM |  |
| O=C(Nc1cccc(Br)c1)Nc1nc(-c2ccc(Br)cc2)cs1 [Compound 159] | 543 nM |  |
| O=C(Nc1nc(-c2ccc(Cl)cc2)cs1)Nc1ccc(Br)cc1C(F)(F)F [Compound 162] | 4710 nM |  |
| O=C(Nc1cc(Cl)cc(Cl)c1)Nc1nc(-c2ccc(Cl)cc2)cs1 [Compound 163] | 180 nM |  |
| O=C(Nc1cc(Cl)cc(Cl)c1)Nc1nc(-c2ccc(F)c(F)c2)cs1 [Compound 164] | 2650 nM |  |
| O=C(Nc1ccc(F)c(C(F)(F)F)c1)Nc1nc(-c2ccc(Br)cc2)cs1 [Compound 166] | 205 nM |  |
| O=C(Nc1ccc(F)c(C(F)(F)F)c1)Nc1nc(-c2ccc(Cl)cc2)cs1 [Compound 167] | 175 nM |  |
| O=C(Nc1nc(-c2ccc(Cl)cc2)cs1)Nc1c(Cl)cc(Cl)cc1Cl [Compound 171] | 927 nM |  |
| CC(C)(C)c1csc(NC(=O)NCc2cccc(Cl)c2)n1 [Compound 172] |  | In Vivo, double dose (% of mice rescued) ([2]; 2 × 2 mg/kg s.c.): 12.5% @ 2 × 2 mg/kg; In Vivo, double dose (% of mice rescued) ([2]; 2 × 20 mg/kg s.c.): 25% @ 2 × 20 mg/kg; MIC [3]: 8.10 µg/mL (≈ 25 µM) |
| O=C(NCc1cccc(Cl)c1)Nc1nc(C2CCCC2)cs1 [Compound 173] |  | In Vivo, double dose (% of mice rescued) ([2]; 2 × 2 mg/kg s.c.): 25% @ 2 × 2 mg/kg; In Vivo, double dose (% of mice rescued) ([2]; 2 × 20 mg/kg s.c.): 25% @ 2 × 20 mg/kg; MIC [3]: 8.40 µg/mL (≈ 25 µM) |
